According to US9220928B2, “Plant extracts from Acronychia species and their use” (EcoBiotics Ltd, priority 2008, dated 2015):

Test system: Streptococcus salivarius K40
Assay: Antibacterial growth inhibition assay
Format: cell-based
Conditions: HPLC fractions and two pure compounds, further test; Table 9
Protocol: The bacteria used in these studies were: • Streptococcus salivarius […] • Bacillus subtilis All antibacterial assays were carried out in a laminar flow cabinet using the protocol described below. Growth or no-growth was assessed visually and by ELISA reader. […] This was then placed in the bacterial shaker at 37° C. at 210 rpm overnight. • 2) A blank reading was made on the spectrophotometer at 600 nm using […] of Columbia broth. A reading of 200 μL of the starter culture was then taken. • 3) In calculations, a final concentration of 0.005 was desired. The formula used for dilution of x mL starter was: x*A600=0.005*desired volume • 4) 90 uL of MeOH was added to each well of a 96 well flat bottomed plate. 10 μL of sample was added to the top well and diluted 1:10 down the plate. Alternatively the top rows were left empty of MeOH and 100 μL of sample was added and then diluted at 1:10 down the plate. • 5) The plates were then left to dry in a biological safety cabinet for 2-3 hours or until all solvent had evaporated off the plate. • 6) 100 μL of diluted bacterial culture was then added to each well of the plate. The plate was then placed in the bacterial incubator at 37° C. overnight. […] For quantitation, plates were read at 405 nm (ELISA). […]

SMILES | Amount of fraction giving 100% inhibition of growth of S. salivarius
CC(C)=CCC/C(C)=C/CC/C(C)=C/COc1ccc(CCC(=O)O)cc1 [EBC111, 3-(4-farnesyloxyphenyl)propionic acid] | 10Ag
COc1cc(CCC(=O)O)ccc1OC/C=C(\C)CC/C=C(\C)CCC=C(C)C [EBC125, 3-(4-farnesyloxy-3-methoxyphenyl)propionic acid] | 1 µL
